Entries after “also recorded” stand apart in the source; their conditions may differ.
Assays:
Type in all cases: cell-based, human
[1] = tested on: eIF2alpha phosphorylation; assay: Western blot of eIF2alpha phosphorylation upon thapsigargin ER stress induction; conditions: three hour TG exposure
Experimental: Cells were harvested at 50-70% confluency, pelleted by centrifugation, and dissolved in RIPA buffer (10 mM Tris/HCl (pH 7.5), 1 mM EDTA, 1% Triton X-100, 0.1% SDS, 0.1% sodium deoxycholate, 100 mM NaCl) supplemented with protease inhibitors (2 mM PMSF and 1× Complete Mini, Roche). Supernatants were collected, protein concentrations were determined using the BCA assay (Pierce/Thermo Scientific), and proteins were separated in a 10% SDS-polyacrylamide gel. Western blotting followed standard protocols using nitrocellulose membranes (Amersham/GE Healthcare). Signal intensities were analyzed with ImageJ (http://rsb.info.nih.gov/ij/).
Antibodies used were: anti-BAF47 (SMARCB1/SNF5; BD Biosciences, San Diego, Calif.), anti-phospho-eIF2alpha (119A11; Cell Signaling), anti-beta actin-HRP (Abcam, Cambridge, UK).
The CHLA-02-ATRT cell line was obtained from ATCC and kept in neurosphere medium (DMEM/F12 (1:1) with Glutamax, B27, penicillin (100 units/mL), streptomycin (100 μg/mL; all from Invitrogen), HEPES (10 mmol/L), Partricin (0.5 μg/mL, Biochrom); insulin (20 μg/mL; Sigma Aldrich), recombinant human epidermal growth factor (EGF; 20 ng/mL), and rhFGFbasic (20 ng/mL; PAN Biotech)). The human malignant rhabdoid tumor cell line LM (provided by Rupert Handgretinger, Tuebingen, Germany) was kept according to Versteege et al. (Nature 1998). DAOY medulloblastoma cells (provided by Michael Grotzer, Zurich, Switzerland) were kept in EMEM (PAA) supplemented with 10% FBS (Biochrom), 2 mM glutamine, 100 units/mL Penicillin/Streptomycin (Invitrogen), and 2.5 μg/mL Amphotericin B (PAA). Hs683 glioma cell lines (provided by Matthias Simon, Bonn, Germany) were kept in DAOY medium with 1 mM sodium pyruvate, MEM non-essential amino acids, and MEM vitamin solution (all from Invitrogen). SW1783 glioblastoma cells (provided by Matthias Simon, Bonn, Germany) and BT12 AT/RT cells (provided by Michael Grotzer, Zurich, Switzerland) were kept in DMEM (1 g/l glucose) supplemented with 10% FBS (Biochrom), 2 mM glutamine, 100 units/ml Penicillin/Streptomycin (Invitrogen) and 2.5 μg/ml Amphotericin B (PAA).
MCF7-SNF5-KD#73 cells (Xu et al., 2010) were cultured in DMEM (4.5 g/L glucose, Invitrogen), 10% FBS (Tet System Approved, Clontech), 2 mM glutamine, and 100 units/mL Penicillin/Streptomycin (Invitrogen). For the knock-down of SMARCB1, tetracycline (1 μg/mL) was added on day 1 and 3, and cells harvested at day 4. At day 4, cells were treated with DTT (5 mM) or Thapsigargin (5 μM). 786-O and A-498 cells (both from Angelika Toelle, Charité Berlin, Germany), HepG2 cells (from Peter Nilsson-Ehle, Lund University, Sweden), and G401 (ATCC) were kept in RPMI1640 (PAA) supplemented with 10% FBS (Biochrom), 2 mM glutamine, 100 units/mL Penicillin/Streptomycin (Invitrogen), and 2.5 μg/mL Amphotericin B (PAA). A-204 (ATCC) were grown in McCoy's 5a modified medium supplemented with 10% FBS (Biochrom), 100 units/mL Penicillin/Streptomycin (Invitrogen), and 2.5 μg/mL Amphotericin B (PAA). All cells were kept in T75 tissue culture flasks (Techno Plastic Products).

G401 cells = assay: Apoptosis assay (Annexin V/7AAD flow cytometry) in kidney MRT cell line; conditions: G401 vs DMSO and vs SMARCB1-positive cell lines
Experimental: (§1) Similarly, G401, A498, 786-O, BT12, SW1783, and DAOY cells were plated into 6-well-plates (200,000 cells per well) and grown for 24 hours before 10 nM BTZ, 30 nM Carfilzomib (CFZ, from Active Biochemicals Co.), or DMSO as vehicle control was added to the cell culture media for another 24 hours. Subsequently, cells were carefully washed with PBS and dissociated by trypsinization. Aliquots of single cell suspensions containing 1×10^5 cells in 100 μL PBS were stained with AnnexinV-APC and 7AAD according to the manufacturer's instructions (BD Biosciences) for 15 min at RT. Subsequently, 400 μL of AnnexinV binding buffer was added (10 mM Hepes, 140 mM NaCl and 2.5 mM CaCl2), cell suspensions were placed on ice and immediately analyzed with a FACSCalibur flow cytometer (BD Biosciences). The data analysis was performed using the FlowJo software (Tree Star). For statistical analyses, an unpaired t-test was conducted using Prism 5.0 (GraphPad).

BT12 cells = assay: Apoptosis assay (Annexin V/7AAD flow cytometry) in brain AT/RT cell line; conditions: BT12 vs DMSO and vs SMARCB1-positive cell lines
Experimental: as §1

MCF7-SNF5-KD#73 cells = assay: Apoptosis assay (Annexin V/7AAD flow cytometry) in tetracycline-induced SMARCB1 knock-down MCF7 cells; conditions: 10 nM for 12 hours; Tet-induced SMARCB1 knock-down vs non-induced MCF7 cells
Experimental: 500,000 MCF7-SNF5-KD#73 cells (Xu et al., 2010) were plated into T75 tissue culture flasks (Techno Plastic Products). For knockdown experiments, tetracycline (1 μg/mL) was added on day 1 and day 3. In case of Bortezomib (BTZ)-treated cells, the drug (Santa Cruz Biotechnology, final concentration 10 nM) was added for 12 hours on day 4 (at 70-85% confluency).
as §1

[2] = 10 nM BTZ for 24 hours, listed as BTZ

SMILES: C/C=C(/C)C(=O)O[C@H]1C(C)=C2[C@H]([C@@H]1OC(=O)CCCCCCC)[C@@](C)(OC(C)=O)C[C@H](OC(=O)CCC)[C@@]1(O)[C@H]2OC(=O)[C@@]1(C)O [TG, Thapsigargin]
- Fold-change of β-actin-normalized phosphorylated eIF2alpha signal intensities between TSG-treated and untreated cells ([1]; 786-O (SMARCB1-positive renal cell carcinoma)): 0.60
- Fold-change of β-actin-normalized phosphorylated eIF2alpha signal intensities between TSG-treated and untreated cells ([1]; A-204 (MRT, muscle origin, lacking SMARCB1)): 1.39
- Fold-change of β-actin-normalized phosphorylated eIF2alpha signal intensities between TSG-treated and untreated cells ([1]; A-498 (SMARCB1-positive renal cell carcinoma)): 1.12
- Fold-change of β-actin-normalized phosphorylated eIF2alpha signal intensities between TSG-treated and untreated cells ([1]; CHLA2 (AT/RT, lacking SMARCB1)): 5.89
- Fold-change of β-actin-normalized phosphorylated eIF2alpha signal intensities between TSG-treated and untreated cells ([1]; DAOY (SMARCB1-positive brain tumor)): 0.77
- Fold-change of β-actin-normalized phosphorylated eIF2alpha signal intensities between TSG-treated and untreated cells ([1]; G401 (MRT, kidney origin, lacking SMARCB1)): 2.49
- Fold-change of β-actin-normalized phosphorylated eIF2alpha signal intensities between TSG-treated and untreated cells ([1]; HepG2 (SMARCB1-positive hepatocellular carcinoma)): 0.56
- Fold-change of β-actin-normalized phosphorylated eIF2alpha signal intensities between TSG-treated and untreated cells ([1]; Hs683 (SMARCB1-positive brain tumor)): 0.81
- Fold-change of β-actin-normalized phosphorylated eIF2alpha signal intensities between TSG-treated and untreated cells ([1]; LM (MRT, liver origin, lacking SMARCB1)): 1.27
- Fold-change of β-actin-normalized phosphorylated eIF2alpha signal intensities between TSG-treated and untreated cells ([1]; SW1783 (SMARCB1-positive brain tumor)): 0.75

SMILES: CC(C)C[C@H](NC(=O)[C@H](CCc1ccccc1)NC(=O)CN1CCOCC1)C(=O)N[C@@H](Cc1ccccc1)C(=O)N[C@@H](CC(C)C)C(=O)[C@@]1(C)CO1 [Carfilzomib]
- Apoptosis (Annexin V-positive and 7AAD-negative cells) (G401 cells; 30 nM CFZ for 24 hours): highest apoptosis; also recorded: increased apoptosis
- Apoptosis (Annexin V-positive and 7AAD-negative cells) (BT12 cells; 30 nM CFZ for 24 hours): highest apoptosis; also recorded: increased apoptosis

SMILES: CC(C)C[C@H](NC(=O)[C@H](Cc1ccccc1)NC(=O)c1cnccn1)B(O)O [Bortezomib, [(1R)-3-methyl-1-({(2S)-3-phenyl-2-[(pyrazin-2-ylcarbonyl)-amino]propanoyl}amino)butyl]boronic acid]
- Apoptosis (Annexin V-positive and 7AAD-negative cells) (G401 cells; 10 nM BTZ for 24 hours): increased apoptosis
- Apoptosis (Annexin V-positive and 7AAD-negative cells) (G401 cells; [2]): highest apoptosis
- Apoptosis (Annexin V-positive and 7AAD-negative cells) (BT12 cells; 10 nM BTZ for 24 hours): increased apoptosis
- Apoptosis (Annexin V-positive and 7AAD-negative cells) (BT12 cells; [2]): highest apoptosis
- Apoptosis (Annexin V-positive and 7AAD-negative cells) (MCF7-SNF5-KD#73 cells): increased apoptosis

From patent US9429574B2, “Cancer therapies and methods” (priority 2011, dated 2016)
